Measured values taken from patent US7563805B2, “Tri-, tetra-substituted-3-aminopyrrolidine derivative” (Daiichi Pharmaceutical Co., Ltd., priority 2005, dated 2009).
In brackets after ≈: the same amount, converted by molar mass. Like-named read-outs stand apart in the source and are kept apart here.

Experiments:
[1] = test system: Mycobacterium tuberculosis (quinolone sensitive); experiment: anti-Mycobacterium tuberculosis (quinolone sensitive) activity, MIC; type: cell-based
[2] = test system: penicillin resistant Streptococcus pneumoniae (PRSP) strain 033806; experiment: mouse local lung infection model by PRSP
S. epidermidis, 56500 = experiment: antibacterial activity (MIC), standard method of Japanese Society of Chemotherapy; settings: Staphylococcus epidermidis, 56500, S. epidermidis
in vivo [3] = settings: female, cynomolgus monkey, po, 5 mg/kg
[4] = rat, in vivo, po
Description: (§1) The Comparative compound was also evaluated by the same procedure.
(§2) The test substance was orally administered to fasted rats (7 week old male Crj:CD IGS rats purchased from Charles River Laboratories Japan, Inc.) at a dose of 5 mg/kg.
(§3) Animals of absorption test group (3 animals per group) were sacrificed by bleeding under etherization at 0.25, 0.5, 1, 2, 4, and 8 hours after the drug administration, and blood, lever, kidney, and lung were collected. The blood was centrifuged (3000 rpm×15 minutes, 4° C.) after coagulation to collect serum. Tissue was homogenized after adding 3 to 5 mL of 0.1 mol/l phosphate buffer (pH 7.0), and the supernatant was collected from the homogenate (3000 rpm×15 minutes, 4° C.).
(§4) Animals of excretion test group (3 animals per group) were placed in a metabolic cage, and the urine of 0 to 4 hours and 4 to 24 hours after the administration was collected in a water-cooled container. Simultaneously with the collection of the urine, the cage was also washed with about 15 mL of 0.1 mol/l phosphate buffer (pH 7.0) to collect the urine attached to the cage. For evaluation of conjugates such as glucuronide, the collected sample was also aliquoted and hydrolyzed with an equal amount of 1 mol/l aqueous solution of sodium hydroxide, and the hydrolysate was neutralized with 0.5 mol/l hydrochloric acid and measured for its concentration. The concentration was measured by LC-MS/MS method.
(§5) Pharmacokinetic parameters of the each drug in rat were calculated by from the time course of the average concentration by using pharmacokinetic analysis software PSAG-CP (AS Medica Inc.) in a manner not dependent on the model animal.

[5] = type: in vivo; settings: 30 minutes observation
Description: The test substance was intracisternally administered to male Slc:ddy mice (6 animals per group), and the convulsion and death were monitored for each cage until 30 minutes after the administration. The test substance was dissolved in 5 μl of 1% aqueous solution of lactic acid, and the dose was 5, 15, or 50 μg per animal.

[6] = test system: Mycobacterium tuberculosis (sensitive bacteria); experiment: anti-Mycobacterium tuberculosis (sensitive bacteria) activity, MIC; type: cell-based
[7] = test system: S. aureus, 87037 (LVFX-resistant MRSA); experiment: antibacterial activity (MIC), standard method of Japanese Society of Chemotherapy; settings: Staphylococcus aureus, MRSA, S. aureus, 87037 (LVFX-resistant MRSA)
P. aeruginosa, 32104 = experiment: as above; settings: Pseudomonas aeruginosa
[8] = potential convulsant activity upon intracisternal administration, with and without 4-biphenyl acetic acid (BPAA); settings: 5 μg/5 μL/mouse i. cist
Description: The potential convulsant activity upon intracisternal administration to mouse was also evaluated for the concomitant and administration with 4-biphenyl acetic acid (BPAA: an active metabolite of fenbufen) and in the absence of such concomitant administration. The evaluation was conducted by using 4 week old male Slc:ddY mice (6 animals per group) and intracisternally administering the test substance at a dose of 5 μg/5 μL/mouse (solvent, 0.5% lactic acid). Monitoring of the animals for the convulsion and death was started immediately after the administration and continued to 30 minutes after the administration. When used concomitantly with the BPAA, BPAA was suspended in 5% CMC, and 400 mg/kg was orally administered at a solution amount of 10 mL/kg, and the test substance was intracisternally administered 30 minutes after the BPAA.

in vivo [9] = settings: male, Crj:CD IGS, rat, po, 5 mg/kg
Description: as §1, §2, §3, §4, §5

hERG K+ channel = hERG K+ channel (Homo sapiens, UniProt Q12809); experiment: hERG-K^+ channel blocking effect
S. marscecens, 10100 = experiment: antibacterial activity (MIC), standard method of Japanese Society of Chemotherapy
[10] = female, cynomolgus monkey, in vivo
E. coli strain E77156 = experiment: rat simple cystitis model (E. coli); type: in vivo
E. faecalis, ATCC 19433 = experiment: antibacterial activity (MIC), standard method of Japanese Society of Chemotherapy; settings: E. faecalis
CYP3A4 = CYP3A4 (Homo sapiens, UniProt P08684); experiment: mechanism-based inhibition (MBI) of CYP3A4, hydroxylation at position 1 of midazolam; settings: inhibition of midazolam 1-hydroxylation; dependence on preincubation time and drug concentration (FIG. 1)
Description: Mechanism-based inhibition (MBI) of CYP3A4 was evaluated by using inhibition of hydroxylation at position 1 of midazolam.

P. aeruginosa, 32121 = experiment: antibacterial activity (MIC), standard method of Japanese Society of Chemotherapy; settings: Pseudomonas aeruginosa
S. aureus, 209P = experiment: as above; settings: Staphylococcus aureus
[11] = test system: S. pneumoniae, J24 (penicillin-intermediate resistant bacteria); experiment: as above
[12] = (with BPAA 400 mg/kg oral, 30 minutes before)
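Wherever Excretion rate in urine, times higher than Comparative compound 1 is given: fasted 7-week-old rats, three per group, tissue sampled up to 8 h post-dose and urine collected over 0–24 h, with conjugates measured after alkaline hydrolysis, concentrations by LC-MS/MS.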
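Wherever Tissue AUC0-8 h, Kidney is given: fasted 7-week-old rats, three per group, tissue sampled up to 8 h post-dose and urine collected over 0–24 h, with conjugates measured after alkaline hydrolysis, concentrations by LC-MS/MS.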
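Wherever Tissue AUC0-8 h, Liver is given: fasted 7-week-old rats, three per group, tissue sampled up to 8 h post-dose and urine collected over 0–24 h, with conjugates measured after alkaline hydrolysis, concentrations by LC-MS/MS.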
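Wherever serum concentration and tissue concentration, times higher than Comparative compound 1 is given: fasted 7-week-old rats, three per group, tissue sampled up to 8 h post-dose and urine collected over 0–24 h, with conjugates measured after alkaline hydrolysis, concentrations by LC-MS/MS.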

hERG K+ channel, sequence (Q12809 whole entry): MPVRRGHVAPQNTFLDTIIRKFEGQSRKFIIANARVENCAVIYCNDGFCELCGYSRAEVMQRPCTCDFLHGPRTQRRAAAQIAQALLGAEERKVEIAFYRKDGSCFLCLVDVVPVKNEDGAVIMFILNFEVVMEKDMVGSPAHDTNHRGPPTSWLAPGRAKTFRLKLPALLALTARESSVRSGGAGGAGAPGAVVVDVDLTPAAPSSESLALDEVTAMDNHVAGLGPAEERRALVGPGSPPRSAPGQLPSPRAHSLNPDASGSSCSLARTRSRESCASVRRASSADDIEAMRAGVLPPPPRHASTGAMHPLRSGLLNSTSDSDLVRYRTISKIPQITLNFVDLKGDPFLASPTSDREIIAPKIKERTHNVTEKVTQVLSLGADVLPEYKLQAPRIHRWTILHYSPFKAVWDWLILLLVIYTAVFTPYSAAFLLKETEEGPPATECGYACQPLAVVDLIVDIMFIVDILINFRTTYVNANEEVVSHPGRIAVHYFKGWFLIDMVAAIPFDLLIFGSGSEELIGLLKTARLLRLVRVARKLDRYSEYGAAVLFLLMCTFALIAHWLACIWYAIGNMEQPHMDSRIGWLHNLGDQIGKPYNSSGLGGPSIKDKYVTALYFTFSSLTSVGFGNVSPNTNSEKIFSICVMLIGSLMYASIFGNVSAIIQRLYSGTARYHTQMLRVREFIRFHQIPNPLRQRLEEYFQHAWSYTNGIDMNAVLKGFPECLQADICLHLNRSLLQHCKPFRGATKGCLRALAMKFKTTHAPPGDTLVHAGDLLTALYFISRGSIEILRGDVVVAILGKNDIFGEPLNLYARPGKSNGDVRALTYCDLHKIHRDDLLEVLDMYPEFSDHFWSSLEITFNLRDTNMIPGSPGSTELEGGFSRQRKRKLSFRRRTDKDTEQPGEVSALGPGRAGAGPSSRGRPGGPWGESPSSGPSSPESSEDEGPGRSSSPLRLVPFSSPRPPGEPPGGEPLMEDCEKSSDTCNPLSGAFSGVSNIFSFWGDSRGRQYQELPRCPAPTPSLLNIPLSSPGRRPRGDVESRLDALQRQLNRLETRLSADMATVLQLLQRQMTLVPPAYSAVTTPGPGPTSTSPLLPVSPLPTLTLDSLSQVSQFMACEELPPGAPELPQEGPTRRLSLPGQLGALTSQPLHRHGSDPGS
CYP3A4, sequence (P08684 whole entry): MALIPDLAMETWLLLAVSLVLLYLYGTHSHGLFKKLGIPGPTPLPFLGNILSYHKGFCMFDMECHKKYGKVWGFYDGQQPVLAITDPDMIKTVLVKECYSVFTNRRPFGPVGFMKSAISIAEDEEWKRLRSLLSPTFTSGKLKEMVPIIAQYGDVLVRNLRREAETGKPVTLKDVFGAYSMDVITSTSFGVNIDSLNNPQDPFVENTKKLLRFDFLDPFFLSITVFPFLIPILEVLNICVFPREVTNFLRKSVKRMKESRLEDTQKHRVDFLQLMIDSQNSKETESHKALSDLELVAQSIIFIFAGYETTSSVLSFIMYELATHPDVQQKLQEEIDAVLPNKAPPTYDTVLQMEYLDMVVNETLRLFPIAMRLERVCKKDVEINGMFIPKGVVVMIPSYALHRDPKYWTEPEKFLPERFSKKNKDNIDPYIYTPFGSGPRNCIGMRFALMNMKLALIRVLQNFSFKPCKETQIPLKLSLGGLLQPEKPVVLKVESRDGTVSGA

For `COc1c(N2CC(C)(N)C3(CC3)C2)c(F)cc2c(=O)c(C(=O)O)cn([C@@H]3C[C@@H]3F)c12` (stereo partly drawn) [Example 9, 7-(7-Amino-7-methyl-5-azaspiro[2.4]heptan-5-yl)-6-fluoro-1-[(1R,2S)-2-fluorocyclopropyl]-8-methoxy-1,4-dihydro-4-oxoquinoline-3-carboxylic acid], the MIC ([1]; strain 1 (QR-3)) was 0.125 µg/mL (≈ 0.298 µM), the MIC ([1]; strain 2 (QR-6)) was 0.5 µg/mL (≈ 1.19 µM) and the MIC ([1]; strain 3 (QR-1)) was 0.25 µg/mL (≈ 0.596 µM). It also gave an MIC ([1]; strain 4 (QR-9)) of 0.25 µg/mL (≈ 0.596 µM), an MIC ([1]; strain MDR 1) of 0.125 µg/mL (≈ 0.298 µM) and an MIC ([1]; strain MDR 3) of 0.125 µg/mL (≈ 0.298 µM). The MIC ([1]; strain MDR 4) was 0.25 µg/mL (≈ 0.596 µM), the MIC ([1]; strain MDR 5) was 0.5 µg/mL (≈ 1.19 µM) and the MIC ([1]; strain MDR 7) was 0.125 µg/mL (≈ 0.298 µM). The MIC ([1]; strain MDR 9) was 0.125 µg/mL (≈ 0.298 µM), the MIC ([1]; strain MDR 12) was 0.125 µg/mL (≈ 0.298 µM) and the MIC ([1]; strain S 1) was 1 µg/mL (≈ 2.38 µM). For the same compound, the “therapeutic effect (number of bacteria in the lung) compared with comparative compound 1 at the same dose” value ([2]; CBA/JNCrlj mice, oral at 2 and 8 hours after infection, 25, 50, and 100 mg/kg/day (FIG. 2)) was “no significant difference”, the “in vivo antibacterial activity for the test bacteria relative to comparative compound 1” value ([2]; PRSP strain 033806) was “about ¼” and the MIC (S. epidermidis, 56500) was 0.1 µg/mL (≈ 0.238 µM). For the same compound, the AUC(0-t) (in vivo [3]) was 16900 ng·h/mL, the Cmax (in vivo [3]) was 2180 ng/mL and the half-life (in vivo [3]) was 4.8 h. For the same compound, the “Excretion rate in urine, times higher than Comparative compound 1” value ([4]; male, Crj:CD IGS) was “about 1.5 times”, the “serum concentration and tissue concentration, times higher than Comparative compound 1” value ([4]; male, Crj:CD IGS) was “about 2 times” and the “Recovery (%) in urine in relation to the amount administered, Recovery (%) including conjugate” value ([4]; male, Crj:CD IGS, 5 mg/kg) was 32.0%. For the same compound, the “Tissue AUC0-8 h, Kidney” value ([4]; male, Crj:CD IGS, 5 mg/kg) was 27800 ng·h/mL, the “Tissue AUC0-8 h, Liver” value ([4]; male, Crj:CD IGS, 5 mg/kg) was 32100 ng·h/mL and the “Tissue AUC0-8 h, Lung” value ([4]; male, Crj:CD IGS, 5 mg/kg) was 13700 ng·h/mL. The “Tissue Cmax, Kidney” value ([4]; male, Crj:CD IGS, 5 mg/kg) was 9.88 µg/g, the “Tissue Cmax, Liver” value ([4]; male, Crj:CD IGS, 5 mg/kg) was 13.7 µg/g and the “Tissue Cmax, Lung” value ([4]; male, Crj:CD IGS, 5 mg/kg) was 3.86 µg/g. For the same compound, the “AUC value, times higher than Comparative compound 1” value [4] was 1.5-2 times, the “convulsant activity (animals affected / 6 animals per group)” value ([5]; 5 μg/mouse intracisternal) was 0/6 and the “convulsant activity (animals affected / 6 animals per group)” value ([5]; 15 μg/mouse intracisternal) was 2/6. The “convulsant activity (animals affected / 6 animals per group)” value ([5]; 50 μg/mouse intracisternal) was 6/6, the MIC ([6]; H37RV, strain H37Rv) was 0.03 µg/mL (≈ 0.0715 µM) and the MIC ([6]; strain Kurono) was 0.03 µg/mL (≈ 0.0715 µM). The MIC ([6]; strain Ravenel) was 0.03 µg/mL (≈ 0.0715 µM), the MIC ([6]; strain TB-s 2) was 0.06 µg/mL (≈ 0.143 µM) and the MIC ([6]; strain TB-s 3) was 0.06 µg/mL (≈ 0.143 µM). For the same compound, the MIC ([6]; strain TB-s 4) was 0.06 µg/mL (≈ 0.143 µM), the MIC ([6]; strain TB-s 5) was 0.06 µg/mL (≈ 0.143 µM) and the MIC ([6]; strain TB-s 6) was 0.06 µg/mL (≈ 0.143 µM). For the same compound, the MIC ([6]; strain TB-s 7) was 0.06 µg/mL (≈ 0.143 µM), the MIC ([6]; strain TB-s 8) was 0.03 µg/mL (≈ 0.0715 µM) and the MIC ([6]; strain TB-s 9) was 0.06 µg/mL (≈ 0.143 µM). The MIC ([6]; strain TB-s 10) was 0.03 µg/mL (≈ 0.0715 µM), the MIC ([6]; strain TB-s 11) was 0.06 µg/mL (≈ 0.143 µM) and the MIC ([6]; strain TB-s 12) was 0.125 µg/mL (≈ 0.298 µM). The MIC ([6]; strain TB-s 13) was 0.06 µg/mL (≈ 0.143 µM), the MIC ([6]; strain TB-s 14) was 0.06 µg/mL (≈ 0.143 µM) and the MIC ([6]; strain TB-s 15) was 0.06 µg/mL (≈ 0.143 µM). The MIC ([6]; strain TB-s 16) was 0.06 µg/mL (≈ 0.143 µM), the MIC ([6]; strain TB-s 17) was 0.06 µg/mL (≈ 0.143 µM) and the MIC ([6]; strain TB-s 18) was 0.06 µg/mL (≈ 0.143 µM). For the same compound, the MIC ([6]; strain TB-s 19) was 0.06 µg/mL (≈ 0.143 µM), the MIC ([6]; strain TB-s 20) was 0.06 µg/mL (≈ 0.143 µM) and the MIC ([6]; strain TB-s 21) was 0.06 µg/mL (≈ 0.143 µM). It also gave an MIC ([6]; strain TB-s 22) of 0.03 µg/mL (≈ 0.0715 µM), an MIC [7] of 0.78 µg/mL (≈ 1.86 µM) and an MIC (P. aeruginosa, 32104) of 0.39 µg/mL (≈ 0.93 µM). For the same compound, the “Number of animals which showed convulsion” value [8, 12] was 0/6 (0/6), the “number of dead animals” value [8, 12] was 0/6 (0/6) and the “Number of animals which showed convulsion” value ([8]; (without BPAA)) was 0/6 (0/6). The “number of dead animals” value ([8]; (without BPAA)) was 0/6 (0/6), the AUC(0-t) (in vivo [9]) was 3080 ng·h/mL and the Cmax (in vivo [9]) was 1220 ng/mL. It also gave an inhibition at 30 µM (hERG K+ channel) of 7.4 ± 4.5%, an inhibition at 100 µM (hERG K+ channel) of 10.2 ± 5.4% and an inhibition at 300 µM (hERG K+ channel) of 20.1 ± 7.4%. The MIC (S. marscecens, 10100) was 0.1 µg/mL (≈ 0.238 µM), the “blood penetration, times higher than Comparative compound 1” value [10] was “about 2.5 times” and the “urine excretion rate, times higher than Comparative compound 1” value [10] was “more than 2 times”. For the same compound, the “Recovery (%) in urine in relation to the amount administered, Recovery (%) including conjugate” value ([10]; 5 mg/kg) was 59.5%, the “therapeutic effect compared with Comparative Compound 1” value (E. coli strain E77156; oral single dose 5 mg/kg/day) was “significantly stronger than the Comparative Compound 1” and the “number of bacteria in the bladder” value (E. coli strain E77156; oral single dose 20 or 80 mg/kg/day, next day of administration (FIG. 4)) was “significant decrease in the number of bacteria”. For the same compound, the MIC (E. faecalis, ATCC 19433) was 0.2 µg/mL (≈ 0.477 µM), the “mechanism-based inhibition (MBI) of CYP3A4” value (CYP3A4) was “weak inhibition” and the MIC (P. aeruginosa, 32121) was 0.2 µg/mL (≈ 0.477 µM). It also gave an MIC (S. aureus, 209P) of 0.025 µg/mL (≈ 0.0596 µM) and an MIC [11] of 0.1 µg/mL (≈ 0.238 µM).
